Measurements reported in patent US20250319063A1, “METHODS AND COMPOUNDS FOR RESTORING MUTANT P53 FUNCTION” (PMV PHARMACEUTICALS, INC., priority 2022, published 2025).
Like-named read-outs stand apart in the source and are kept apart here.

Assay: Single oral dose plasma pharmacokinetics in fasted and fed healthy subjects (food effect, ethnicity)
Type: in vivo, human
Conditions: for AUC % extrap: both fed and fasted conditions
Method: Compound 1 pharmacokinetics were analyzed in healthy subjects administered Compound 1 in a fasted state. A subject was considered fasted if the subject fasted overnight for at least 10 hours and water was permitted ad libitum except for 1 hour before and after drug administration. For fasted subjects, Compound 1 was administered with at least 8 ounces (240 mL) of water. Compound 1 pharmacokinetics were also analyzed in healthy subjects administered Compound 1 in a fed state. A subject was considered fed after consuming a high-fat meal 30 minutes prior to drug administration, and the meal was finished at least 5 minutes prior to drug administration. For both fasted and fed subjects, no food was permitted for at least 4 hours post-dose and water was permitted starting at 1 hour post-dose.
Subjects were healthy, non-smoking male and female Caucasian/non-Asian or Japanese participants 18 to 55 years of age with a BMI between […].
In Part 1 of the study, analysis was performed to compare 1000 mg Compound 1 in fed and fasted states. A dose of 1000 mg of Compound 1 consisted of two 500 mg tablets administered as a single oral dose. The analysis of Part 1 was performed at two separate time points in two different schemes (1A and 1B).
In scheme 1A, at period 1, Compound 1 analyzed in healthy subjects administered 1000 mg Compound 1 (n=3) in a fed state. Following a washout period of 7-9 days, these subjects were then administered 1000 mg Compound 1 in a fasted state.
Separately, in scheme 1B, at period 1, Compound 1 was analyzed in healthy subjects administered 1000 mg Compound 1 (n=3) in a fasted state. Following a washout period of 7-9 days, these subjects were then administered 1000 mg Compound 1 in a fed state.
In Part 2 of the study, analysis was performed to compare 2000 mg Compound 1 in fed and fasted states and also to compared ethnicity of Caucasian/non-Asian subjects and Japanese subjects. A dose of 2000 mg of Compound 1 consisted of four 500 mg tablets administered as a single oral dose.
For Caucasian/non-Asian subjects (n=20) the analysis was performed at two separate time points in two different schemes (2A and 2B). During scheme 2A, at period 1, Compound 1 was analyzed in subjects administered 2000 mg Compound 1 (n=10) in a fed state. Following a washout period of 7-9 days, at period 2, these subjects were then administered 2000 mg Compound 1 in a fasted state. Separately in scheme 2B, at period 1, Compound 1 was analyzed in subjects administered 2000 mg Compound 1 (n=10) in a fasted state. Following a washout period of 7-9 days, at period 2, these subjects were then administered 2000 mg Compound 1 in a fed state.
For Japanese subjects (n=6), Compound 1 pharmacokinetics were analyzed in subjects administered 2000 mg Compound 1 in a fasted state.
Blood for the analysis of study drug (Compound 1) and metabolite (M1) were collected.
Various pharmacokinetic (PK) parameters were determined for each subject. (Tables 9-12 and FIGS. 23-28).
Statistical analysis of Compound 1 plasma PK parameters were evaluated for food effects for Part 1 (Table 11) and Part 2 (Table 12). The log-transformed PK parameters were analyzed using an analysis of variance model with treatment (fed/fasted condition) and period as fixed effects and participant as a random effect.

[1] = 2000 mg oral, Fasted, Caucasian/Non-Asian
[2] = 2000 mg oral, Fed, Caucasian/Non-Asian

## CNC(=O)c1ccc(NCC#Cc2cc3c(N[C@@H]4CCN(C)C[C@@H]4F)cccc3n2CC(F)(F)F)c(OC)c1 [Compound 1, 4-((3-(4-(((3S,4R)-3-fluoro-1-methylpiperidin-4-yl)amino)-1-(2,2,2-trifluoroethyl)-1H-indol-2-yl)prop-2-yn-1-yl)amino)-3-methoxy-N-methylbenzamide]
1000 mg (Part 1)
  Plasma CL/F and Vz/F, fasted vs fed: slightly higher in the fasted condition
1000 mg and 2000 mg doses
  Mean plasma concentrations, fed vs fasted: higher for Caucasian/non-Asian participants under the fed condition compared to the fasted condition
1000 mg oral (Part 1)
  AUC0-inf, % Ratio (Fed/Fasted): 120.25%
  AUC0-last, % Ratio (Fed/Fasted): 120.21%
  Cmax, % Ratio (Fed/Fasted): 121.75%
1000 mg oral, Fasted (Part 1)
  AUC% extrap, GeoMean: 1.61%
  CL/F, GeoMean: 6.67 L/h
  λz, GeoMean: 0.0450 h⁻¹
1000 mg oral, Fed (Part 1)
  AUC0-last, GeoMean: 177 µg·h/mL
  AUC% extrap, GeoMean: 1.61%
  CL/F, GeoMean: 5.55 L/h
  λz, GeoMean: 0.0438 h⁻¹
1000 mg single dose
  increase of peak exposure (Cmax) with food (high-fat meal) vs fasted: approximately 22%
  increase of systemic exposure (AUC0-inf and AUC0-last) with food (high-fat meal) vs fasted: approximately 20%
1000 mg
  AUC % extrap: less than 5%
2000 mg oral (Part 2)
  AUC0-inf, % Ratio (Fed/Fasted): 178.74%
  AUC0-last, % Ratio (Fed/Fasted): 172.94%
  Cmax, % Ratio (Fed/Fasted): 183.82%
[1]
  AUC% extrap, GeoMean: 3.42%
  CL/F, GeoMean: 7.71 L/h
  λz, GeoMean: 0.0348 h⁻¹
2000 mg oral, Fasted, Japanese
  AUC0-last, GeoMean: 326 µg·h/mL
  AUC% extrap, GeoMean: 2.13%
  CL/F, GeoMean: 5.92 L/h
  λz, GeoMean: 0.0398 h⁻¹
[2]
  AUC0-last, GeoMean: 448 µg·h/mL
  AUC% extrap, GeoMean: 4.74%
  CL/F, GeoMean: 4.18 L/h
  λz, GeoMean: 0.0306 h⁻¹
2000 mg single dose
  increase of AUC0-inf with food (high-fat meal) vs fasted: 79%
  increase of AUC0-last with food (high-fat meal) vs fasted: 73%
  increase of peak exposure (Cmax) with food (high-fat meal) vs fasted: approximately 84%
2000 mg, Caucasian/non-Asian (Part 2)
  Plasma CL/F and Vz/F, fasted vs fed: slightly higher in the fasted condition
2000 mg, Caucasian/non-Asian
  AUC % extrap: less than 17%
2000 mg, fasted
  Mean plasma concentrations, Japanese vs Caucasian/non-Asian: higher in Japanese participants compared to Caucasian/non-Asian participants
  Plasma CL/F and Vz/F, Japanese vs Caucasian/non-Asian: numerically lower for Japanese participants
  peak exposure (Cmax) and systemic exposure (AUC), Japanese vs Caucasian/non-Asian: numerically higher in Japanese participants
Caucasian/non-Asian participants
  maximum exposure (Cmax) and systemic exposure (AUC), fed vs fasted: higher under fed conditions (high-fat meal) compared to fasted conditions
Both sexes, human, plasma, po, 1000 mg, 1000 mg oral, Fasted (Part 1), read-out: AUC0-24, GeoMean
  AUC(0-t): 97.9 µg·h/mL
Both sexes, human, plasma, po, 1000 mg, 1000 mg oral, Fasted (Part 1), read-out: AUC0-96, GeoMean
  AUC(0-t): 148 µg·h/mL
Both sexes, human, plasma, po, 1000 mg, 1000 mg oral, Fasted (Part 1), read-out: AUC0-inf, GeoMean
  AUC(0-inf): 150 µg·h/mL
Both sexes, human, plasma, po, 1000 mg, 1000 mg oral, Fasted (Part 1), read-out: AUC0-inf, Geometric Mean (analysis of variance model)
  AUC(0-inf): 150 µg·h/mL
Both sexes, human, plasma, po, 1000 mg, 1000 mg oral, Fasted (Part 1), read-out: AUC0-last, GeoMean
  AUC(0-t): 147 µg·h/mL
Both sexes, human, plasma, po, 1000 mg, 1000 mg oral, Fasted (Part 1), read-out: AUC0-last, Geometric Mean (analysis of variance model)
  AUC(0-t): 147 µg·h/mL
Both sexes, human, plasma, po, 1000 mg, 1000 mg oral, Fasted (Part 1), read-out: Cmax, GeoMean
  Cmax: 8690 ng/mL
Both sexes, human, plasma, po, 1000 mg, 1000 mg oral, Fasted (Part 1), read-out: Cmax, Geometric Mean (analysis of variance model)
  Cmax: 8690 ng/mL
Both sexes, human, plasma, po, 1000 mg, 1000 mg oral, Fasted (Part 1), read-out: Tmax, Median
  Tmax: 2.27 h
